# Measurements as given in patent publication US6391564B1, “Methods and compositions utilizing Rad51” (priority 1997, dated 2002).
# Like-named read-outs stand apart in the source and are kept apart here.
# Legend:
# TGR-1 cells [1] = assay: Apoptosis by fluorescence in situ end labeling (FISEL) in TGR-1 cells; assay type: cell-based, rat; conditions: After 36 hrs etoposide in culture medium
# Description: Treatment with etoposide (Sedivy), a drug that inhibits DNA topoisomerase II, is a classic system for inducing apoptosis in cells (Mizumoto, et al., (1994). Mol. Pharmac. 46, 890-895).
# (§3) Fluorescence In Situ End Labeling (FISEL). FISEL detects cell death (apoptosis) in situ by quantitating DNA strand breaks in individual nuclei. It uses terminal transferase (TdT) to label the 3′-ends in fragmented genomic DNA with biotinylated nucleotide. 100 μl of reaction mix contain 1 μl (25 Units) TdT (Boehringer Mannheim), 20 μl 5×TdT buffer (supplied with the enyzme), 1 μl 0.5 mM biotin-ll-dUTP, 3 μl 0.5 mM dTTP, and 75 μl ddH2O. Cytological preparations are incubated at 37° C. for 1 hr with this reaction mix. Washing the slides for 3×5 min in PBS is sufficient to terminate the reaction. The incorporated biotin-dUTP is detected with rhodarnine-conjugated avidin.
# TGR-1 cells [2] = assay: Immunofluorescent staining of Rad51 foci in nuclei and micronuclei of TGR-1 cells; assay type: cell-based, rat; conditions: TGR-1 cultures treated with etoposide, FIG. 5D
# From the text: (§1) Immunofluorescent Staining.
# (§2) Digital Imaging Microscopy.
# TGR-1 cells [3] = system: TGR-1 cells
# Description: To induce DSBs in DNA and recombinational repair, cell cultures were exposed to a ^137CS irradiator at doses of 900 rad and then allowed to recover for various time spans. In another experiment, cells were treated with 10 μM 5-aza-dC for 24 hrs.
# Immunofluorescent Staining. Harvested cells were washed and resuspended in PBS. Cell density was adjusted to ˜10^5 cells/ml. 0.5 ml aliquots of this cell suspension were centrifuged onto clean glass slides at 800 rpm for 4 min, using a Shandon Cytospin. Immediately after cytocentrifugation, the preparations were fixed in absolute methanol for 30 min at −20° C. and then rinsed in ice-cold acetone for a few seconds. Following three washes with PBS, the preparations were incubated at 37° C. with rabbit anti-HsRad51 antiserum, diluted 1:100 with PBS, in a humidified incubator for 30 min. For some experiments, the slides were simultaneously labeled with rat anti-HsRad52 antiserum or mouse monoclonal antibody. The slides were then washed in PBS another three times for 10 min each and incubated for 30 min with fluorescein-isothiocyanate (FITC)-conjugated anti-rabbit IaG, appropriately diluted with PBS. Rad52, Gadd45, p53, and RNAPII were detected with rhodamine, conjugated anti-rat IgG or anti-mouse IgG+IgM. After three further washes with PBS, the preparations were counterstained with 1 μg/ml 4,6-diamidino-2-phenylindole (DAPI) in 2×SSC for 5 min. The slides were mounted in 90% glycerol, 0.1 M Tris-HCl, pH 8.0, and 2.3% 1,4-diazobicyclo-2,2,2-octane (DABCO).
# as §3
# Digital Imaging Microscopy. Images were taken with a Zeiss epifluorescence microscope equipped with a thermoelectronically cooled charge coupled device (CCD) camera (Photometries CH250), which was controlled by an Apple Macintosh computer. Gray scale source images were captured separately with filter sets for FITC, rhodamine, and DAPI. Gray scale images were pseudocolored and merged using ONCOR Image and ADOBE Photoshop software.
# LNL8 fibroblasts = assay: Immunofluorescent staining of Rad51 foci in nuclei and micronuclei of LNL8 fibroblasts; assay type: cell-based; conditions: human LNL8 fibroblast cultures, non-lethal doses of 5-aza-dC
# From the text: as §1, §2
# [4] = 24 hrs 0.1 μg/ml colcemid, 1 day of recovery
# [5] = 24 hrs 0.1 μg/ml colcemid, 2 days of recovery
# [6] = 24 hrs 0.1 μg/ml colcemid, 3 days of recovery
# [7] = 24 hrs 0.1 μg/ml colcemid, no recovery
structure (smiles),measurement,setting,value
COc1cc([C@@H]2c3cc4c(cc3[C@@H](O[C@@H]3O[C@@H]5CO[C@@H](C)O[C@H]5[C@H](O)[C@H]3O)[C@H]3COC(=O)[C@H]23)OCO4)cc(OC)c1O [etoposide],cells showing genome fragmentation (FISEL-positive),TGR-1 cells [1],half of the cells showed genome fragmentation
same,"content of induced micronuclei (Rad51 protein, fragmented DNA)",TGR-1 cells [2],contain Rad51 protein
"CN[C@H]1CCc2cc(OC)c(OC)c(OC)c2-c2ccc(OC)c(=O)cc21 [Colcemid, colcemid]",colcemid-treated cells arrested at metaphase,TGR-1 cells [3]; 24 hrs 0.1 μg/ml colcemid,185
same,Percentage of Cells Showing Rad51+/FISEL+,TGR-1 cells [3]; [4],1%
same,Percentage of Cells Showing Rad51+/FISEL−,TGR-1 cells [3]; [4],31%
same,Percentage of Cells Showing Rad51−/FISEL+,TGR-1 cells [3]; [4],14%
same,Percentage of Cells Showing Rad51−/FISEL−,TGR-1 cells [3]; [4],54%
same,Percentage of Cells Showing Rad51+/FISEL+,TGR-1 cells [3]; [5],6%
same,Percentage of Cells Showing Rad51+/FISEL−,TGR-1 cells [3]; [5],9%
same,Percentage of Cells Showing Rad51−/FISEL+,TGR-1 cells [3]; [5],40%
same,Percentage of Cells Showing Rad51−/FISEL−,TGR-1 cells [3]; [5],45%
same,Percentage of Cells Showing Rad51+/FISEL+,TGR-1 cells [3]; [6],4%
same,Percentage of Cells Showing Rad51+/FISEL−,TGR-1 cells [3]; [6],7%
same,Percentage of Cells Showing Rad51−/FISEL+,TGR-1 cells [3]; [6],46%
same,Percentage of Cells Showing Rad51−/FISEL−,TGR-1 cells [3]; [6],43%
same,Percentage of Cells Showing Rad51+/FISEL+,TGR-1 cells [3]; [7],0%
same,Percentage of Cells Showing Rad51+/FISEL−,TGR-1 cells [3]; [7],6%
same,Percentage of Cells Showing Rad51−/FISEL+,TGR-1 cells [3]; [7],9%
same,Percentage of Cells Showing Rad51−/FISEL−,TGR-1 cells [3]; [7],85%
same,induced MN containing very brightly fluorescing Rad51 foci,TGR-1 cells [3]; colcemid-treated cells recovered 24 hrs in drug-free medium,over 30%
"Nc1ncn([C@H]2C[C@H](O)[C@@H](CO)O2)c(=O)n1 [5-aza-dC, 5-azadeoxycytidine]",cells displaying MN with focally concentrated Rad51 protein,LNL8 fibroblasts,5-10%
